According to patent US20260272926A1, “HIV-1P ROTEASE INHIBITORS AND USES THEREOF” (Purdue Research Foundation, priority 2023, published 2026):
Where “and” joins values, the source holds several entries; their conditions need not be identical. Identical values can stand only once. Like-named read-outs stand apart in the source and are kept apart here.

Assays:
HIV-1 protease = molecular target: T1, HIV-1 protease (Human immunodeficiency virus type 1 group M subtype B, UniProt P04585); assay: HIV-1 protease enzyme-inhibitory assay (Toth and Marshall); assay type: biochemical; conditions: for Ki / Ki (nM): HIV-1 protease inhibitory activity
T1 construct: catalytically active dimeric HIV-1 protease
Protocol: (§1) The ability of the nilotinib subunit, pyridinyl-pyrimidinyl amino benzamides to serve as P2 ligands in the S2 subsite of HIV-1 protease was investigated. The HIV-1 protease inhibitory activity of these compounds was evaluated in an enzyme-inhibitory assay reported by Toth and Marshall. […] We also determined the antiviral activity of these inhibitors in MT-2 human-T-lymphoid cells exposed to HIVLAI. […] We then examined a pyridyl thiazole heterocycle in place of the pyridyl pyrimidinyl scaffold in compounds 5a-d.

HIVLAI = assay: antiviral activity in MT-2 human-T-lymphoid cells exposed to HIVLAI; assay type: cell-based, HIV-1
Protocol: as §1

[1] = antiviral, MT-2 cells exposed to HIVLAI, Table 1 and text
[2] = Human immunodeficiency virus 1, MT2, antiviral, MT-2 cells exposed to HIVLAI, Table 1 and text, read-out: IC50
[3] = Human immunodeficiency virus 1, MT2, antiviral, MT-2 cells exposed to HIVLAI, Table 2, read-out: IC50

Row | SMILES | Ki (HIV-1 protease) | IC50 (HIVLAI; [2]) [nM] | IC50 (HIVLAI; [3]) [nM] | other results
1 | COc1ccc(S(=O)(=O)N(CC(C)C)C[C@@H](O)[C@H](Cc2ccccc2)NC(=O)c2ccc(C)c(Nc3nc(C)cs3)c2)cc1 [Compound 5j, N-((2S,3R)-3-hydroxy-4-((N-isobutyl-4-methoxyphenyl)sulfonamido)-1-phenylbutan-2-yl)-4-methyl-3-((4-methylthiazol-2-yl)amino)benzamide] | 26 nM and 26.5 nM |  |  | IC50 (HIVLAI; Human immunodeficiency virus 1, MT2): > 1000 nM; antiviral activity (in words) (HIVLAI; MT-2 cells exposed to HIVLAI): did not show any appreciable antiviral activity
2 | COc1ccc(S(=O)(=O)N(CC(C)C)C[C@@H](O)[C@H](Cc2ccccc2)NC(=O)c2cccc(Nc3nc(-c4cccnc4)cs3)c2)cc1 |  |  |  | Ki (nM) (HIV-1 protease): Low nM; IC50 (nM) (HIVLAI; [1]): Low nM
3 | COc1ccc(S(=O)(=O)N(CC(C)C)C[C@@H](O)[C@H](Cc2ccccc2)NC(=O)c2cccc(Nc3nc(-c4cccnc4)cs3)c2C)cc1 [Compound 5f, N-((2S,3R)-3-hydroxy-4-((N-isobutyl-4-methoxyphenyl)sulfonamido)-1-phenylbutan-2-yl)-2-methyl-3-((4-(pyridin-3-yl)thiazol-2-yl)amino)benzamide] | 19.3 nM | > 1000 |  | antiviral activity (in words) (HIVLAI; MT-2 cells exposed to HIVLAI): did not exhibit any appreciable antiviral activity
4 | COCc1csc(Nc2ccc(C)c(C(=O)N[C@@H](Cc3ccccc3)[C@H](O)CN(CC(C)C)S(=O)(=O)c3ccc(OC)cc3)c2)n1 [Compound 5p, N-((2S,3R)-3-hydroxy-4-((N-isobutyl-4-methoxyphenyl)sulfonamido)-1-phenylbutan-2-yl)-5-((4-(methoxymethyl)thiazol-2-yl)amino)-2-methylbenzamide] | 18 nM | 630 | 630 | 
5 | COc1ccc(S(=O)(=O)N(CC(C)C)C[C@@H](O)[C@H](Cc2ccccc2)NC(=O)c2cc(C)cc(Nc3nc(C)cs3)c2)cc1 [Compound 5l, N-((2S,3R)-3-hydroxy-4-((N-isobutyl-4-methoxyphenyl)sulfonamido)-1-phenylbutan-2-yl)-3-methyl-5-((4-methylthiazol-2-yl)amino)benzamide] | 80 nM |  | > 1000 | 
6 | COc1ccc(S(=O)(=O)N(CC(C)C)C[C@@H](O)[C@H](Cc2ccccc2)NC(=O)c2cc(Nc3nc(-c4cccnc4)cs3)ccc2C)cc1 [Compound 5h, N-((2S,3R)-3-hydroxy-4-((N-isobutyl-4-methoxyphenyl)sulfonamido)-1-phenylbutan-2-yl)-2-methyl-5-((4-(pyridin-3-yl)thiazol-2-yl)amino)benzamide] | 8.7 nM | 580 |  | 
7 | COc1ccc(S(=O)(=O)N(CC(C)C)C[C@@H](O)[C@H](Cc2ccccc2)NC(=O)c2ccc(C)c(Nc3nc(-c4cccnc4)cs3)c2C)cc1 [Compound 5i, N-((2S,3R)-3-hydroxy-4-((N-isobutyl-4-methoxyphenyl)sulfonamido)-1-phenylbutan-2-yl)-2,4-dimethyl-3-((4-(pyridin-3-yl)thiazol-2-yl)amino)benzamide] |  | 510 |  | 
8 | COc1ccc(S(=O)(=O)N(CC(C)C)C[C@@H](O)[C@H](Cc2ccccc2)NC(=O)c2cccc(Nc3nc(C(F)(F)F)cs3)c2C)cc1 [Compound 5o, N-((2S,3R)-3-hydroxy-4-((N-isobutyl-4-methoxyphenyl)sulfonamido)-1-phenylbutan-2-yl)-2-methyl-3-((4-(trifluoromethyl)thiazol-2-yl)amino)benzamide] | 72 nM |  | > 1000 | 
9 | COc1ccc(S(=O)(=O)N(CC(C)C)C[C@@H](O)[C@H](Cc2cc(F)cc(F)c2)NC(=O)c2ccc(C)c(Nc3nccc(-c4cccnc4)n3)c2)cc1 [Compound 5c, N-((2S,3R)-1-(3,5-difluorophenyl)-3-hydroxy-4-((N-isobutyl-4-methoxyphenyl)sulfonamido)butan-2-yl)-4-methyl-3-((4-(pyridin-3-yl)pyrimidin-2-yl)amino)benzamide] | 0.58 nM | 124 |  | 
10 | COc1ccc(S(=O)(=O)N(CC(C)C)C[C@@H](O)[C@H](Cc2ccccc2)NC(=O)c2cc(Nc3nc(C)cs3)ccc2C)cc1 [Compound 5m, N-((2S,3R)-3-hydroxy-4-((N-isobutyl-4-methoxyphenyl)sulfonamido)-1-phenylbutan-2-yl)-2-methyl-5-((4-methylthiazol-2-yl)amino)benzamide] | 75.9 nM |  | > 1000 | 
11 | COc1ccc(S(=O)(=O)N(CC(C)C)C[C@@H](O)[C@H](Cc2ccccc2)NC(=O)c2ccc(C)c(Nc3nc(C(F)(F)F)cs3)c2)cc1 [Compound 5n, N-((2S,3R)-3-hydroxy-4-((N-isobutyl-4-methoxyphenyl)sulfonamido)-1-phenylbutan-2-yl)-4-methyl-3-((4-(trifluoromethyl)thiazol-2-yl)amino)benzamide] | 60.3 nM |  | > 1000 | 
12 | CC(C)CN(C[C@@H](O)[C@H](Cc1ccccc1)NC(=O)c1cccc(Nc2nc(-c3cccnc3)cs2)c1)S(=O)(=O)c1ccc2nc(NC3CC3)sc2c1 |  |  |  | Ki (nM) (HIV-1 protease): Low nM; IC50 (nM) (HIVLAI; [1]): Low nM
13 | COc1ccc(S(=O)(=O)N(CC(C)C)C[C@@H](O)[C@H](Cc2ccccc2)NC(=O)c2ccc(C)c(Nc3nccc(-c4cccnc4)n3)c2)cc1 [Compound 5a, N-((2S,3R)-3-hydroxy-4-((N-isobutyl-4-methoxyphenyl)sulfonamido)-1-phenylbutan-2-yl)-4-methyl-3-((4-(pyridin-3-yl)pyrimidin-2-yl)amino)benzamide] | 0.028 nM | 154 |  | enzyme inhibitory Ki (HIV-1 protease; text b193): 28 PM
14 | COc1ccc(S(=O)(=O)N(CC(C)C)C[C@@H](O)[C@H](Cc2ccccc2)NC(=O)c2ccc(C)c(Nc3nc(-c4cccnc4)cs3)c2)cc1 [Compound 5e, N-((2S,3R)-3-hydroxy-4-((N-isobutyl-4-methoxyphenyl)sulfonamido)-1-phenylbutan-2-yl)-4-methyl-3-((4-(pyridin-3-yl)thiazol-2-yl)amino)benzamide] | 38.3 nM | 390 |  | 
15 | COc1ccc(S(=O)(=O)N(CC(C)C)C[C@@H](O)[C@H](Cc2ccccc2)NC(=O)c2cc(C)cc(Nc3nc(-c4cccnc4)cs3)c2)cc1 [Compound 5g, N-((2S,3R)-3-hydroxy-4-((N-isobutyl-4-methoxyphenyl)sulfonamido)-1-phenylbutan-2-yl)-3-methyl-5-((4-(pyridin-3-yl)thiazol-2-yl)amino)benzamide] | 185 nM | > 1000 |  | 
16 | Cc1ccc(C(=O)N[C@@H](Cc2cc(F)cc(F)c2)[C@H](O)CN(CC(C)C)S(=O)(=O)c2ccc(N)cc2)cc1Nc1nccc(-c2cccnc2)n1 [Compound 5d, N-((2S,3R)-4-((4-amino-N-isobutylphenyl)sulfonamido)-1-(3,5-difluorophenyl)-3-hydroxybutan-2-yl)-4-methyl-3-((4-(pyridin-3-yl)pyrimidin-2-yl)amino)benzamide] | 1.92 nM | 212 |  | reduction in antiviral activity (HIVLAI; over compound 5c): 3 fold
17 | COc1ccc(S(=O)(=O)N(CC(C)C)C[C@@H](O)[C@H](Cc2ccccc2)NC(=O)c2cccc(Nc3nc(C)cs3)c2C)cc1 [Compound 5k, N-((2S,3R)-3-hydroxy-4-((N-isobutyl-4-methoxyphenyl)sulfonamido)-1-phenylbutan-2-yl)-2-methyl-3-((4-methylthiazol-2-yl)amino)benzamide] | 71.9 nM |  | > 1000 | 
18 | Cc1ccc(C(=O)N[C@@H](Cc2ccccc2)[C@H](O)CN(CC(C)C)S(=O)(=O)c2ccc3nc(NC4CC4)sc3c2)cc1Nc1cc(-c2cccnc2)ncn1 |  |  |  | Ki (nM) (HIV-1 protease): Low nM; IC50 (nM) (HIVLAI; [1]): Low nM
19 | Cc1ccc(C(=O)N[C@@H](Cc2ccccc2)[C@H](O)CN(CC(C)C)S(=O)(=O)c2ccc(N)cc2)cc1Nc1nccc(-c2cccnc2)n1 [Compound 5b, N-((2S,3R)-4-((4-amino-N-isobutylphenyl)sulfonamido)-3-hydroxy-1-phenylbutan-2-yl)-4-methyl-3-((4-(pyridin-3-yl)pyrimidin-2-yl)amino)benzamide] | 0.17 nM |  |  | IC50 (HIVLAI; antiviral, MT-2 cells exposed to HIVLAI, Table 1 and text, read-out: IC50): 66.8 nM
